Like-named read-outs stand apart in the source and are kept apart here.
Legend:
Sinapis alba = experiment: Herbicidal action, pre- and postemergence application in the greenhouse; format: in vivo; conditions: post-emergence, 3.0 kg/ha PRE, read-out: % damage
Protocol: (§1) Plastic flowerpots having a volume of 300 cm^3 were filled with a sandy loam and the test plants placed therein (either as seed, as vegetatively reproduced species, or as potted plants, e.g., vines). For preemergence treatment, the active ingredients were suspended or emulsified in water as vehicle and sprayed onto the surface of the soil immediately after sowing by means of finely distributing nozzles. The potted vines were treated by spraying them with the correspondingly diluted liquor. For postemergence treatment, the agents were, as stated above, sprayed in water onto the leaves of the test plants, some liquor also falling onto the soil. In some special cases, solid active ingredients were first dissolved in dimethylformamide and then applied in a total liquor amount of 400 liters of water per hectare. For the postemergence treatment, the plants were first grown to a height of from 3 to 10 cm before being treated. With grasses, the first growth was cut, and the new growth treated 2 to 3 days after cutting. The temperature requirements of the plants were taken into account by placing them in cooler or warmer sections of the greenhouse. The experiments were run for from 4 to 6 weeks, during which time the plants were tended and their reaction to the various treatments was assessed.
(§2) The application rates are given in kg/ha of active ingredient, regardless of the method of application and the amount of water used.
(§3) A 0 to 100 scale was used for the evaluation, 0 denoting normal emergence or no damage (or no inhibition), and 100 denoting non-emergence or complete destruction of the plants. A distinction should be made in the influence on growth between desired changes without any appreciable disadvantageous phytotoxic effects (e.g., purely growth-regulating effects) and those of a phytotoxic herbicical character.

Lolium mult. = experiment: as above; format: in vivo; conditions: Lolium, post-emergence, read-out: % damage
Protocol: as §1, §2, §3

Mentha piper. = experiment: as above; format: in vivo; conditions: post-emergence; 3.0 kg/ha POST; read-out: % damage
Protocol: as §1, §2, §3

Viola tric. = experiment: as above; format: in vivo; conditions: 3.0 kg/ha POST
Protocol: as §1, §2, §3

Ipom. spp. = experiment: as above; format: in vivo, Ipomoea spp.; conditions: Ipomoea, post-emergence; 3.0 kg/ha POST; read-out: % damage
Protocol: as §1, §2, §3

Glycine max = experiment: Shoot inhibition, pre- and postemergence treatment (table 28); format: in vivo; conditions: post-emergence, read-out: % shoot inhibition
Protocol: as §1, §2, §3

Cynodon dactyl. = experiment: as above; format: in vivo, Cynodon dactylon; conditions: post-emergence, read-out: % shoot inhibition
Protocol: as §1, §2, §3

Arachys hypog. = experiment: as above; format: in vivo, Arachys hypogaea; conditions: post-emergence, read-out: % shoot inhibition
Protocol: as §1, §2, §3

Euphorbia genic. = experiment: as above; format: in vivo, Euphorbia geniculata; conditions: post-emergence, read-out: % shoot inhibition
Protocol: as §1, §2, §3

Galium apar. = experiment: Herbicidal action, pre- and postemergence application in the greenhouse; format: in vivo, Galium aparine; conditions: post-emergence, 3.0 kg/ha POST, read-out: % damage
Protocol: as §1, §2, §3

Cynodon dact. (seed) = experiment: as above; format: in vivo, Cynodon dactylon; conditions: appln. rate 2 kg/ha, POST line
Protocol: as §1, §2, §3

Echin. c.g. = experiment: Removal and inhibition of unwanted plants, preemergence, greenhouse; format: in vivo, Echinochloa crus galli
Protocol: as §1, §2, §3

Setar. spp. = experiment: as above; format: in vivo
Protocol: as §1, §2, §3

Lam. spp. = experiment: as above; format: in vivo
Protocol: as §1, §2, §3

Solan. nig. = experiment: as above; format: in vivo, Solanum nigrum
Protocol: as §1, §2, §3

Cyper. esc. = experiment: as above; format: in vivo, Cyperus esculentus
Protocol: as §1, §2, §3

Tritic. aestiv. = experiment: Shoot inhibition, pre- and postemergence treatment (table 28); format: in vivo; conditions: post-emergence
Protocol: as §1, §2, §3

Poa prat. = experiment: as above; format: in vivo; conditions: Poa pratensis, post-emergence, read-out: % shoot inhibition
Protocol: as §1, §2, §3

Poa pratensis [1] = experiment: Growth inhibition in lawns, preemergence treatment in the greenhouse; format: in vivo; conditions: Poa pratensis, pre-emergence, read-out: % growth inhibition after emergence
Protocol: as §1, §2, §3

Hordeum vulg. = experiment: Shoot inhibition, pre- and postemergence treatment (table 28); format: in vivo, Hordeum vulgare; conditions: post-emergence
Protocol: as §1, §2, §3

Euphorbia geniculata [2] = experiment: Inhibition of shoot growth by growth regulators, pre- and postemergence (table 27); format: in vivo; conditions: Euphorbia heterophylla, post-emergence, read-out: shoot growth inhibition (%)
Protocol: as §1, §2, §3

Medicago sativa = experiment: as above; format: in vivo; conditions: post-emergence, read-out: shoot growth inhibition (%)
Protocol: as §1, §2, §3

Euphorbia geniculata [3] = experiment: Shoot growth, postemergence treatment in the greenhouse (table 26); format: in vivo
Protocol: as §1, §2, §3

Cynodon dactylon = experiment: as above; format: in vivo; conditions: from seed
Protocol: as §1, §2, §3

Poa pratensis [4] = experiment: as above; format: in vivo
Protocol: as §1, §2, §3

Hordeum vulgare = experiment: as above; format: in vivo
Protocol: as §1, §2, §3

[5] = read-out: % shoot inhibition, 1.0 kg/ha POST
[6] = read-out: % shoot inhibition, 1.0 kg/ha PRE
[7] = read-out: % shoot inhibition, 2.0 kg/ha POST
[8] = read-out: % shoot inhibition, 2.0 kg/ha PRE

In the case of `OC1C(O)C2CC1C1N=NC21` (stereo not drawn), the pest or weed control at 3000 g/ha (Sinapis alba) is reported as 80%, the pest or weed control at 3000 g/ha (Lolium mult.; 3.0 kg/ha POST) is reported as 95% and the pest or weed control at 3000 g/ha (Lolium mult.; 3.0 kg/ha PRE) is reported as 90%. For the same compound, the pest or weed control at 3000 g/ha (Mentha piper.) was 100%, the “% damage” value (Viola tric.) was 95% and the pest or weed control at 3000 g/ha (Ipom. spp.) was 100%.

For `CN(C)NC(=O)CCC(=O)O` [drawing 439], the inhibition at 1000 g/ha (Glycine max; 1.0 kg/ha PRE) was 0%, the inhibition at 2000 g/ha (Glycine max; 2.0 kg/ha PRE) was 0% and the inhibition at 1000 g/ha (Cynodon dactyl.; from seed, 1.0 kg/ha POST) was 20%. It also gave an inhibition at 2000 g/ha (Cynodon dactyl.; from seed, 2.0 kg/ha POST) of 20%, an inhibition at 1000 g/ha (Arachys hypog.; 1.0 kg/ha POST) of 30% and an inhibition at 1000 g/ha (Arachys hypog.; 1.0 kg/ha PRE) of 50%. For the same compound, the inhibition at 2000 g/ha (Arachys hypog.; 2.0 kg/ha POST) was 30%, the inhibition at 2000 g/ha (Arachys hypog.; 2.0 kg/ha PRE) was 50% and the inhibition at 1000 g/ha (Euphorbia genic.; 1.0 kg/ha PRE) was 0%. It also gave an inhibition at 2000 g/ha (Euphorbia genic.; 2.0 kg/ha PRE) of 0%.

`Cc1ccc(NC2C(Br)C3CC2C2N=NC32)cc1` (stereo not drawn) was tested, and the pest or weed control at 3000 g/ha (Sinapis alba) was 100%, the pest or weed control at 3000 g/ha (Lolium mult.; 3.0 kg/ha POST) was 100% and the pest or weed control at 3000 g/ha (Lolium mult.; 3.0 kg/ha PRE) was 95%. The pest or weed control at 3000 g/ha (Mentha piper.) was 100%, the pest or weed control at 3000 g/ha (Galium apar.) was 80% and the pest or weed control at 3000 g/ha (Ipom. spp.) was 100%. For the same compound, the “% damage” value (Cynodon dact. (seed)) was 100%.

In the case of `BrC1C(Br)C2CC1C1N=NC21` (stereo not drawn) [drawing 430], the “% damage” value (Echin. c.g.; 2.0 kg/ha PRE) is reported as 50%, the “% damage” value (Echin. c.g.; 4.0 kg/ha PRE) is reported as 80% and the “% damage” value (Echin. c.g.; 8.0 kg/ha PRE) is reported as 90%. The “% damage” value (Setar. spp.; 2.0 kg/ha PRE) was 100%, the “% damage” value (Setar. spp.; 4.0 kg/ha PRE) was 100% and the “% damage” value (Setar. spp.; 8.0 kg/ha PRE) was 100%. The “% damage” value (Lam. spp.; 2.0 kg/ha PRE) was 95%, the “% damage” value (Lam. spp.; 4.0 kg/ha PRE) was 95% and the “% damage” value (Lam. spp.; 8.0 kg/ha PRE) was 95%. The “% damage” value (Solan. nig.; 2.0 kg/ha PRE) was 95%, the “% damage” value (Solan. nig.; 4.0 kg/ha PRE) was 95% and the “% damage” value (Solan. nig.; 8.0 kg/ha PRE) was 95%. For the same compound, the “% damage” value (Cyper. esc.; 2.0 kg/ha PRE) was 20%, the “% damage” value (Cyper. esc.; 4.0 kg/ha PRE) was 55% and the “% damage” value (Cyper. esc.; 8.0 kg/ha PRE) was 70%.

With `C[N+](C)(C)CCCl` [[ClCH2CH2N(C⊕H3)3]⊖ Cl, reference compound] the inhibition at 1000 g/ha (Tritic. aestiv.; [5]) was 30%, the inhibition at 1000 g/ha (Tritic. aestiv.; [6]) was 20% and the inhibition at 2000 g/ha (Tritic. aestiv.; [7]) was 30%. For the same compound, the inhibition at 2000 g/ha (Tritic. aestiv.; [8]) was 20%, the inhibition at 1000 g/ha (Poa prat.) was 0% and the inhibition at 2000 g/ha (Poa prat.) was 0%. For the same compound, the inhibition at 1000 g/ha (Glycine max) was 0%, the inhibition at 2000 g/ha (Glycine max) was 0% and the inhibition at 500 g/ha (Poa pratensis [1]; 0.5 kg/ha) was 0%. For the same compound, the inhibition at 1000 g/ha (Poa pratensis [1]; 1.0 kg/ha) was 10%, the inhibition at 2000 g/ha (Poa pratensis [1]; 2.0 kg/ha) was 10% and the inhibition at 4000 g/ha (Poa pratensis [1]; 4.0 kg/ha) was 10%. For the same compound, the inhibition at 1000 g/ha (Hordeum vulg.; [5]) was 10%, the inhibition at 1000 g/ha (Hordeum vulg.; [6]) was 20% and the inhibition at 2000 g/ha (Hordeum vulg.; [7]) was 10%. It also gave an inhibition at 2000 g/ha (Hordeum vulg.; [8]) of 20%, an inhibition at 1000 g/ha (Cynodon dactyl.) of 0% and an inhibition at 2000 g/ha (Cynodon dactyl.) of 0%. The inhibition at 500 g/ha (Euphorbia geniculata [2]) was 0%, the inhibition at 1000 g/ha (Euphorbia geniculata [2]) was 0% and the inhibition at 2000 g/ha (Euphorbia geniculata [2]) was 0%. For the same compound, the inhibition at 4000 g/ha (Euphorbia geniculata [2]) was 10%, the inhibition at 500 g/ha (Medicago sativa) was 0% and the inhibition at 1000 g/ha (Medicago sativa) was 0%. It also gave an inhibition at 2000 g/ha (Medicago sativa) of 0%, an inhibition at 4000 g/ha (Medicago sativa) of 0% and an inhibition at 1000 g/ha (Arachys hypog.) of 0%. The inhibition at 2000 g/ha (Arachys hypog.) was 0%, the inhibition at 1000 g/ha (Euphorbia genic.) was 0% and the inhibition at 2000 g/ha (Euphorbia genic.) was 0%. It also gave a Shoot length (Euphorbia geniculata [3]; 0.5 kg/ha) of 12.5 cm, a Shoot length (Euphorbia geniculata [3]; 1.0 kg/ha) of 13 cm and a Shoot length (Euphorbia geniculata [3]; 2.0 kg/ha) of 13 cm. The Shoot length (Cynodon dactylon; 1.0 kg/ha) was 7 cm, the Shoot length (Cynodon dactylon; 2.0 kg/ha) was 7 cm and the Shoot length (Poa pratensis [4]; 1.0 kg/ha) was 20 cm. It also gave a Shoot length (Poa pratensis [4]; 2.0 kg/ha) of 19 cm, a Shoot length (Hordeum vulgare; 0.5 kg/ha) of 14 cm and a Shoot length (Hordeum vulgare; 1.0 kg/ha) of 14 cm. The Shoot length (Hordeum vulgare; 2.0 kg/ha) was 14 cm.

Reference: patent US4259235A, “Tricyclic nitrogenous compounds having string plant growth regulating properties” (BASF Aktiengesellschaft, priority 1977, dated 1981)
